The text below walks through data of patent publication US12338483B2, “Compositions and methods for logic-gated profiling of biologic activity” (Georgia Tech Research Corporation, priority 2019, dated 2025).

Bridge positions count the residues as written; N and C are the ends. Square brackets hold non-standard residues; d marks the D form. Ends that are not written are not given here.

One experiment has as its target T1, GzmB (Homo sapiens, UniProt P10144) and West Nile Virus NS3 protease.
T1 construct: West Nile Virus NS3 protease
Nature of the experiment: Incubation of GzmB/MMP AND-gate sensor with GzmB and West Nile Virus NS3 protease. In kind it is biochemical. The following applies: sensor 5 μM; 300 nM GzmB and 100 nM protease; 1.5 hours; FIG. 21. The method, then: (§1) Next the protease activity sensor was incubated with GzmB and either MMP8 or one of two viral proteases (West Nile Virus NS3 protease and Tobacco Etch Virus protease) to show the AND-gate sensor can distinguish immune activity in tumors from viral infections (FIG. 21). The sensor produced low signals with the viral proteases compared to MMP8.
(§2) FIGS. 20-21 show mean change in fluorescence (7D, kinetic trace) after incubation of GzmB/MMP AND-gate sensor (5 μM) with (7C) 300 nM GzmB and/or 100 nM different MMP's or (7D) 300 nM GzmB and 100 nM West Nile Virus NS3 protease, Tobacco Etch Virus protease, or MMP8 for 1.5 hours, n=3.

In experiment [1] the target is T2, GzmB and Tobacco Etch Virus protease (Homo sapiens, UniProt P10144).
T2 construct: Tobacco Etch Virus protease
T2 sequence (P10144 21-247): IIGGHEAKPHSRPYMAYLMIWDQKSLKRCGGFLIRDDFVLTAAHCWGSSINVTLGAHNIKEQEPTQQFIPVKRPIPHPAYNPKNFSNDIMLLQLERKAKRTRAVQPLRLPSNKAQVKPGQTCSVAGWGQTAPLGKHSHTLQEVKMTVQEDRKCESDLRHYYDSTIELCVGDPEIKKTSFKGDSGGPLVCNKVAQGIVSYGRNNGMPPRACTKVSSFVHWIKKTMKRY
Description: Incubation of GzmB/MMP AND-gate sensor with GzmB and Tobacco Etch Virus protease. In kind it is biochemical. The following applies: sensor 5 μM; 300 nM GzmB and 100 nM protease; 1.5 hours; FIG. 21. Here is the method:
as §1, §2

Another experiment concerns GzmB and MMPs. Nature of the experiment: Cleavage assay of GzmB/MMP AND-gate sensor with each MMP with and without GzmB. Format: biochemical. The following applies: sensor 5 μM; 300 nM GzmB and/or 100 nM different MMPs; 1.5 hours; all three MMPs; FIG. 20. The method, then: Then a cleavage assay was performed with the GzmB/MMP AND-gate sensor, testing the probe with each MMP with and without GzmB (FIG. 20).
as §2

The target in experiment [2] is T3, GzmB in supernatant of OT1 T-cell co-incubation with EL4 or EG7-OVA cells, and Thrb (UniProt P00734+P04187).
T3 construct: using the supernatant as a GzmB source and adding Thrb; endogenous in cells; host or cells: T cells from OT1 mice co-incubated with EL4 or EG7-OVA cells; supernatant used at 10%
T3 sequence (P04187 21-247, one chain of several): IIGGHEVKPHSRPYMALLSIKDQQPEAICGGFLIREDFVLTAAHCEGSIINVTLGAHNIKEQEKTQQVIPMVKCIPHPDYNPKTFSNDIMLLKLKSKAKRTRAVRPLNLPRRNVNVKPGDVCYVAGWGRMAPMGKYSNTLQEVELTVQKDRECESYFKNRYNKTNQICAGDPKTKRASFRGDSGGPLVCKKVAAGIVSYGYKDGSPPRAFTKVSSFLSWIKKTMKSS
Description: Cleavage assay with supernatant of transgenic T-cell killing assay as GzmB source, plus Thrb. The following applies: nanoparticle-conjugated sensor 1 μM; 10% supernatant from EL4 and EG7-OVA co-incubation and/or 3.7 Thrb; 12 hours; FIG. 17. Format: cell-based, mice. The method, then: FIGS. 15-17 show an example of the disclosed AND-gate protease activity sensors used with a living system. The sensors were evaluated in an in vitro transgenic T-cell killing assay in which cytotoxic T-cells taken from OT1 mice were co-incubated with target cells EL4 and EG7-OVA (FIG. 15). OT1 T cells can recognize the OVA antigen and mount an immune response, so the T-cells would theoretically respond to the EG7-OVA cells but not to the EL4 cells. Supernatant was harvested from the co-incubation and quantified the immune response by GzmB secretion using ELISA (FIG. 16). The concentration was measured after overnight co-incubation at 37° C. with target cells, as measured by ELISA, n=3. It was confirmed that co-incubation of OT1 cells with EG7-OVA cells, but not with EL4 cells, increases GzmB secretion by OT1 cells.
Then we cleavage assays were run with the AND-gate sensors, using the supernatant as a GzmB source and adding Thrb. […] Data for EL4 and EG7-OVA were normalized by subtraction of trace using OT1-only supernatant, and data for EL4+Thrb and EG7-OVA+Thrb were normalized by subtraction of trace using OT1-only supernatant and Thrb.

The test system of a further experiment is GzmB and Thrb. Nature of the experiment: Cleavage assay of GzmB/Thrb AND-gate sensor with GzmB and/or Thrb. Format: biochemical. The method, then:
Next, the AND-gate logic protease sensor was tested in a cleavage assay.
Thus, the presence of even small amounts of a protease can be detected if the other protease is also present. FIGS. 13-14 show: mean change in fluorescence after incubation of the AND-gate sensor with (FIG. 13) 9.2 nM Thrb and varying concentrations of GzmB (0-150 nM) or (FIG. 14) 300 nM GzmB and varying concentrations of Thrb (0-4.6 nM) for 2 hours, n=2. For all fluorescent readings, samples were excited at 485 nm, emission was measured at 528 nm, and samples were incubated at 37° C.

T1 sequence (P10144 21-247): as the sequence (P10144 21-247) above

Take “GzmB/MMP AND-gate sensor: AND-gate protease activity sensor (SEQ ID NO: 2) that probes both GzmB and MMPs (CGIEFDSGGKGAPAALRAAGGCK; MOD_RES (11)..(11) D-Gly)”: the “signal with GzmB and West Nile Virus NS3 protease compared to MMP8” value with GzmB is recorded as “low signals”. Further, the “signal with GzmB and Tobacco Etch Virus protease compared to MMP8” value in experiment [1] is on record as “low signals”. The “change of fluorescent signal on addition of GzmB to MMPs” value with GzmB and MMPs is recorded as “drastically increased the fluorescent signal by over two-fold”.
For the substance “GzmB/Thrb AND-gate sensor: Disulfide-cyclized peptide (SEQ ID NO: 1) with DABCYL quencher, 5-FAM reporter, GzmB and Thrb substrates and an azide for click conjugation (KCGIEFDSGGKGG[dF]PRSGGGCK; disulfide 2-21 (inferred); also: DABCYL quencher, 5-FAM reporter, azide for click conjugation)”, the “signal (mean change in fluorescence) with T-cell co-incubation supernatant” value in experiment [2] is listed as “high signal was attained only when Thrb was added to the GzmB-high OT1/EG7-OVA supernatant”. In the experiment on GzmB and Thrb (9.2 nM Thrb with 0-150 nM GzmB, or 300 nM GzmB with 0-4.6 nM Thrb, 2 hours, FIGS. 13-14), the “sensitivity of fluorescence to protease concentration” value is “very sensitive to small changes in the concentration of both proteases even in the nanomolar range”. Also, in the experiment with GzmB and Thrb (nanoparticle-conjugated sensor 1 μM, 125 nM GzmB and 3.7 nM Thrb, 12 hours, FIG. 12), the “fluorescent signal, both proteases present together” value is reported as “high fluorescent signal”. In addition, in the experiment on GzmB and Thrb (nanoparticle-conjugated sensor 1 μM, 125 nM GzmB or 3.7 nM Thrb, 12 hours, FIG. 12), the “fluorescent signal, either protease present alone” value is reported as “not when either protease is present alone”.
